This assay deals with Human recombinant PDE4 (Genbank accession no NM—006203) (Homo sapiens, UniProt Q08499). Nature of the assay: PDE4 assay (SPA, cleavage of cAMP). To be noted: 1 hour incubation, test compound up to 10 μM, cAMP 1×10^−5M, read-out: PDE4 IC50 range. The class given is biochemical. Put shortly:
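Human recombinant PDE4 incubated 1 hour with compound (up to 10 μM), 1×10^−5M cAMP and radiolabelled cAMP tracer. AMP product detected by SPA bead binding; IC50 taken as concentration giving 50% inhibition of substrate cleavage versus controls, reported as ranges.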

Experimental findings from US9051290B2, “Biaryl phosphodiesterase inhibitors” (LEO PHARMA A/S, priority 2010, dated 2015) are described below.

Each structure is given as a SMILES string. Bounds are passed on as bounds.

Sequence of Human recombinant PDE4 (Genbank accession no NM—006203) (Q08499 1-673 isoform Q08499-2): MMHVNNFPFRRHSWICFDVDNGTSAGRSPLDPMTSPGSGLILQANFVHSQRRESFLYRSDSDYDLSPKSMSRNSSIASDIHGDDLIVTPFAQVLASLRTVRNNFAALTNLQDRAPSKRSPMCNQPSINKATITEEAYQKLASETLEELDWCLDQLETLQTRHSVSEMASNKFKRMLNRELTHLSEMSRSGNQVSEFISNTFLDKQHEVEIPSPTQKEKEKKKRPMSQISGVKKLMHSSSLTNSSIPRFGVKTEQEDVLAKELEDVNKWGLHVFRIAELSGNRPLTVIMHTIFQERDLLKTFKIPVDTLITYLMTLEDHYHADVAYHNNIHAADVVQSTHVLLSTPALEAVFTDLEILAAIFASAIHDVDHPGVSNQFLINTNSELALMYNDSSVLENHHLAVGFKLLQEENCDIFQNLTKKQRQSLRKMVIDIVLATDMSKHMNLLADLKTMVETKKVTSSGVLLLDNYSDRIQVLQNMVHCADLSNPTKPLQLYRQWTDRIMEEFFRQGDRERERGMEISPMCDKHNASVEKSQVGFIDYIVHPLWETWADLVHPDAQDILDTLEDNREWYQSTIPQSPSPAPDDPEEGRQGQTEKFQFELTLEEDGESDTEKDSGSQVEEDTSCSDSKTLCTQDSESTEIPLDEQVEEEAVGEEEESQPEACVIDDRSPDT

For the compound `COCC1(COc2c(-c3ccc4c(c3)COC4=O)ccc(OC)c2OC)COC1` [Compound 215, 5-[3,4-Dimethoxy-2-(3-methoxymethyl-oxetan-3-ylmethoxy)-phenyl]-3H-isobenzofuran-1-one], the IC50 is under 100 nM.

On to `COCC1(COc2c(-c3ccc4c(c3)CNC4=O)ccc(OC)c2OC)COC1` [Compound 216, 5-[3,4-Dimethoxy-2-(3-methoxymethyl-oxetan-3-ylmethoxy)-phenyl]-2,3-dihydro-isoindol-1-one], for which the IC50 was under 100 nM.

`COCC(C)(C)COc1c(-c2cccc3c2CCC3=O)ccc(OC)c1OC` [Compound 217, 4-[3,4-Dimethoxy-2-(3-methoxy-2,2-dimethyl-propoxy)-phenyl]-indan-1-one]: the IC50 is under 100 nM.

In the case of `COCC(C)(C)COc1c(-c2ccc3c(c2)COC3=O)ccc(OC)c1OC` [Compound 218, 5-[3,4-Dimethoxy-2-(3-methoxy-2,2-dimethyl-propoxy)-phenyl]-3H-isobenzofuran-1-one], the half-inhibitory concentration (IC50) is under 100 nM.

As for `COCC(C)(C)COc1c(-c2ccc3c(c2)CNC3=O)ccc(OC)c1OC` [Compound 219, 5-[3,4-Dimethoxy-2-(3-methoxy-2,2-dimethyl-propoxy)-phenyl]-2,3-dihydro-isoindol-1-one], the IC50 was under 100 nM.
